The text below walks through data of patent publication US12227500B2, “Substituted pyrrolo[2,3-b]pyridines for suppressing toxic endoplasmic reticulum stress” (THE TRUSTEES OF COLUMBIA UNIVERSITY IN THE CITY OF NEW YORK, priority 2018, dated 2025).

Structures are written as SMILES.

What all share (assay): Radiolabeled ATP kinase assay, panel of 371 kinases (Table S6)
Common to all, as to format: biochemical

Assay [1] has as its target T1, panel of 371 human kinases (Homo sapiens, UniProt P37173).
T1 construct: purchased Reaction Biology Corp
The following applies: TGFBR2; 0.1 μM; 10 μM ATP; read-out: % Enzyme Activity (relative to DMSO controls). An excerpt: (§1) ; FIG. 38C). […]. Further targeted analyses, such as genetic knock-down or knock-out, may be warranted to parse the role of these additional kinases in our model of neurodegeneration.

The target of assay [2] is T2, panel of 371 human kinases (Homo sapiens, UniProt P15735).
T2 construct: purchased Reaction Biology Corp
The following applies: PHKg2; 0.1 μM; 10 μM ATP; read-out: % Enzyme Activity (relative to DMSO controls).
Source text: as §1

In assay [3] the target is T3, panel of 371 human kinases (Homo sapiens, UniProt P49841).
T3 construct: purchased Reaction Biology Corp
The following applies: GSK3b; 0.1 μM; 10 μM ATP; read-out: % Enzyme Activity (relative to DMSO controls).
Source text: as §1

The target of assay [4] is T4, panel of 371 human kinases (Homo sapiens, UniProt O43781).
T4 construct: purchased Reaction Biology Corp
T4 sequence (O43781 whole entry): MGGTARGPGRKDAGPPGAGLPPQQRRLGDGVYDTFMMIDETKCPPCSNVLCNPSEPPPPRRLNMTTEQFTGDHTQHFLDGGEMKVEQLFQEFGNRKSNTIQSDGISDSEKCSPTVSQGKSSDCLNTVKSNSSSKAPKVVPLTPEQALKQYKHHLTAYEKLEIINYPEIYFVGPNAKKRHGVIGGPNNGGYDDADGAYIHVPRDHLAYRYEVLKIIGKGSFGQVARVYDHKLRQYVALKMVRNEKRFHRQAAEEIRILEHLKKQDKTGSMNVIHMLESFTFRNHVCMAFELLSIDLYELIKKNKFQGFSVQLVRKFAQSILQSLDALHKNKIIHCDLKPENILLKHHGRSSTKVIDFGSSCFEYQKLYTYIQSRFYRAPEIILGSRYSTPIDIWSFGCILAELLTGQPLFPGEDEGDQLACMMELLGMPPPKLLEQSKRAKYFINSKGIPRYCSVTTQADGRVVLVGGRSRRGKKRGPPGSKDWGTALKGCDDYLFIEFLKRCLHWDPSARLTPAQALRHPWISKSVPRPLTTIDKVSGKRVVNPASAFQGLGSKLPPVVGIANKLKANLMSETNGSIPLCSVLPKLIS
The following applies: DYRK3; 0.1 μM; 10 μM ATP; read-out: % Enzyme Activity (relative to DMSO controls).
Source text: as §1

The target in assay [5] is T5, panel of 371 human kinases (Homo sapiens, UniProt Q9H1R3).
T5 construct: purchased Reaction Biology Corp
T5 sequence (Q9H1R3 whole entry): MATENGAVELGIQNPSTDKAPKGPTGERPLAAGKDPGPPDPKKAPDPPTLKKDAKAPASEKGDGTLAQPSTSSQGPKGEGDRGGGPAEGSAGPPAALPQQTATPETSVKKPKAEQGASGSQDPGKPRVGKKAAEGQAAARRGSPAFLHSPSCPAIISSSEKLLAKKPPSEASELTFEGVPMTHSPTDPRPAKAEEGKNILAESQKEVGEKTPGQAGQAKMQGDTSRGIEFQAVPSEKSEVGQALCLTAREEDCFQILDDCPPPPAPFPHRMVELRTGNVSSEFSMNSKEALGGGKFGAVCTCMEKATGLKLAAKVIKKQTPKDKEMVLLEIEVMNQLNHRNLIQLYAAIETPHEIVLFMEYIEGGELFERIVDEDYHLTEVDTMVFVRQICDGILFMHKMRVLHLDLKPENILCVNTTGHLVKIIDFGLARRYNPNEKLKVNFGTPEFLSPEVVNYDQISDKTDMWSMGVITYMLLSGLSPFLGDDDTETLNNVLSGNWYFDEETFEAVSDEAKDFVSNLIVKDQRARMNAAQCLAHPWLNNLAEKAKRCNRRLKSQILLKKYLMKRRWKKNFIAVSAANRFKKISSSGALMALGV
The following applies: MLCK2/MYLK2; 0.1 μM; 10 μM ATP; read-out: % Enzyme Activity (relative to DMSO controls).
Source text: as §1

In assay [6] the target is T6, panel of 371 human kinases (Homo sapiens, UniProt O14920).
T6 construct: purchased Reaction Biology Corp
The following applies: IKKb/IKBKE; 0.1 μM; 10 μM ATP; read-out: % Enzyme Activity (relative to DMSO controls).
Source text: as §1

For assay [7], the target named is T7, panel of 371 human kinases (Homo sapiens, UniProt Q9UQM7).
T7 construct: purchased Reaction Biology Corp
T7 sequence (Q9UQM7 whole entry): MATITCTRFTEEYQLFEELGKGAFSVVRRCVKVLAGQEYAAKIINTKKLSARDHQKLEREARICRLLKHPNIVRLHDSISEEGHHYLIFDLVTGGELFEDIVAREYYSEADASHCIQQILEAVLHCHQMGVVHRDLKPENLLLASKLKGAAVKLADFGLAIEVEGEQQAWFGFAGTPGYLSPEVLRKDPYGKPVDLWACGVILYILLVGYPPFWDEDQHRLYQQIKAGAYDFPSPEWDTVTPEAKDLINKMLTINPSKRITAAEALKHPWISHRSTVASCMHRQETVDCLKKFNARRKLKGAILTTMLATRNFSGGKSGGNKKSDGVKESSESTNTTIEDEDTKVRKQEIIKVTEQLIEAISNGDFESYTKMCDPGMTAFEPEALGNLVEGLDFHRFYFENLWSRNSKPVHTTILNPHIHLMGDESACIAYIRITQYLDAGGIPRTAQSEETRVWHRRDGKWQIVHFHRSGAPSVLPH
The following applies: CAMK2a; 0.1 μM; 10 μM ATP; read-out: % Enzyme Activity (relative to DMSO controls).
Source text: as §1

Assay [8] addresses T8, panel of 371 human kinases (Homo sapiens, UniProt Q32MK0).
T8 construct: purchased Reaction Biology Corp
The following applies: MYLK3; 0.1 μM; 10 μM ATP; read-out: % Enzyme Activity (relative to DMSO controls).
Source text: as §1

In assay [9] the target is T9, panel of 371 human kinases (Homo sapiens, UniProt P09619).
T9 construct: purchased Reaction Biology Corp
T9 sequence (P09619 33-1106): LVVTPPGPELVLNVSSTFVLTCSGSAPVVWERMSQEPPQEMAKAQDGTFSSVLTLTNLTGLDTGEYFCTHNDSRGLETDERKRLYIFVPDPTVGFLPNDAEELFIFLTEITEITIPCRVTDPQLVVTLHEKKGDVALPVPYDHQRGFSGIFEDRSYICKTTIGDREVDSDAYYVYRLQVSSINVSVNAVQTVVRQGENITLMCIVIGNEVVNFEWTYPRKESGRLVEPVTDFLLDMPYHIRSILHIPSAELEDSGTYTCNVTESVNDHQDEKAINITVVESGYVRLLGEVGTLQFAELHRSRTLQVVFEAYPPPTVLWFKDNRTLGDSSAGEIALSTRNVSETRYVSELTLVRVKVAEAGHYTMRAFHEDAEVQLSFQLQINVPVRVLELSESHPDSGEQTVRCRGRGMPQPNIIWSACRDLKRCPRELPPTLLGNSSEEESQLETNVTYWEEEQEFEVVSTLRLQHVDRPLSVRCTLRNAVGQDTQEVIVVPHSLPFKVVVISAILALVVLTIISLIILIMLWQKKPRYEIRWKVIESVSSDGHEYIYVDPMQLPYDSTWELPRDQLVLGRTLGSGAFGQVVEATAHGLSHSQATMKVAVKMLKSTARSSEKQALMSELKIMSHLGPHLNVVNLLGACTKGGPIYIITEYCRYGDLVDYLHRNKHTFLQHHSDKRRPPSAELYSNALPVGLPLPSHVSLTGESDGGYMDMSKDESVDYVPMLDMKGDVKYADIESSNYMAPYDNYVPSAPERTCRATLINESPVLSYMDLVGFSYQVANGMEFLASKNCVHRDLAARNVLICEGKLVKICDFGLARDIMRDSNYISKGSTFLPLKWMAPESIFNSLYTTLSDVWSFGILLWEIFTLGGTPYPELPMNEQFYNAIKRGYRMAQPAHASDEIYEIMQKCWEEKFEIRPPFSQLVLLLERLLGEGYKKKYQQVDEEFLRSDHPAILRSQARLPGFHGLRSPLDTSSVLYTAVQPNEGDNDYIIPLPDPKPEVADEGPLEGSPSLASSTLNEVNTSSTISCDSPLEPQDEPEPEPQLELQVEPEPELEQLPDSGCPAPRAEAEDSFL
The following applies: PDGFRb; 0.1 μM; 10 μM ATP; read-out: % Enzyme Activity (relative to DMSO controls).
Source text: as §1

Assay [10] addresses T10, panel of 371 human kinases (Homo sapiens, UniProt O00506).
T10 construct: purchased Reaction Biology Corp
The following applies: STK25/YSK1; 0.1 μM; 10 μM ATP; read-out: % Enzyme Activity (relative to DMSO controls).
Source text: as §1

Assay [11] deals with T11, panel of 371 human kinases (Homo sapiens, UniProt P22612).
T11 construct: purchased Reaction Biology Corp
T11 sequence (P22612 whole entry): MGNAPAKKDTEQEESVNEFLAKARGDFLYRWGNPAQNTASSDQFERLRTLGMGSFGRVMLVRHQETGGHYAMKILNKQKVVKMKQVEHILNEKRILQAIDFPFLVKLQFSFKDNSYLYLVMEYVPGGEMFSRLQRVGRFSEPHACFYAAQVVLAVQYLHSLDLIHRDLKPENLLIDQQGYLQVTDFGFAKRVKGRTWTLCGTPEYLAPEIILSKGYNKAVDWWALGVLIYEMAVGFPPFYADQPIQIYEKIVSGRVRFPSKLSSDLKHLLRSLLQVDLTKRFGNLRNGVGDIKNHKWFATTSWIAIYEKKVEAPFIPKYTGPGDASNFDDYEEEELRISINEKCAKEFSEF
The following applies: PKAcg; 0.1 μM; 10 μM ATP; read-out: % Enzyme Activity (relative to DMSO controls).
Source text: as §1

Assay [12] has as its target T12, panel of 371 human kinases (Homo sapiens, UniProt Q9UEE5).
T12 construct: purchased Reaction Biology Corp
The following applies: DRAK1/STK17A; 0.1 μM; 10 μM ATP; read-out: % Enzyme Activity (relative to DMSO controls).
Source text: as §1

Assay [13] concerns the target T13, panel of 371 human kinases (Homo sapiens, UniProt Q12851).
T13 construct: purchased Reaction Biology Corp
T13 sequence (Q12851 1-820): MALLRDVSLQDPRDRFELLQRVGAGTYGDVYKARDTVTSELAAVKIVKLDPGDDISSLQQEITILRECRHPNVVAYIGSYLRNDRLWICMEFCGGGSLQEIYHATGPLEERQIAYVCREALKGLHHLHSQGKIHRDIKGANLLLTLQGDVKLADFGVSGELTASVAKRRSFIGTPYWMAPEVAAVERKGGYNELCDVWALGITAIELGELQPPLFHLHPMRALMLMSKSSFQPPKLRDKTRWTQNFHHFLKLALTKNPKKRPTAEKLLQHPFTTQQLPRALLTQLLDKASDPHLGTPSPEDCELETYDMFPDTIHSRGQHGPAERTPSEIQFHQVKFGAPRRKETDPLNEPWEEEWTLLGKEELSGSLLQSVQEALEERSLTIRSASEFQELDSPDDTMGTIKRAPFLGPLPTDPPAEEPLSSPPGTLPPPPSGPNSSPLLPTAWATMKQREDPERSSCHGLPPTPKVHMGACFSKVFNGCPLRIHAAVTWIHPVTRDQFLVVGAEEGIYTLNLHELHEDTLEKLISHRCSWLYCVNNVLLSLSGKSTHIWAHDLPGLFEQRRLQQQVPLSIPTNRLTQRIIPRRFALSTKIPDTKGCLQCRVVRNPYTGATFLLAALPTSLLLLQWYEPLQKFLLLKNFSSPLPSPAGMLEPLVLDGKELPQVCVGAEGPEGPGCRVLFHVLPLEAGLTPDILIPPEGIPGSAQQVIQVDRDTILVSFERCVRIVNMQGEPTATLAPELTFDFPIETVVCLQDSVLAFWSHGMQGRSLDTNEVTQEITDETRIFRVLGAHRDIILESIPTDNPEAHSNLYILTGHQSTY
The following applies: for remaining activity at 0.1 µM: GCK/MAP4K2, 10 μM ATP, read-out: % Enzyme Activity (relative to DMSO controls).
Source text: as §1

For assay [14], the target named is T14, panel of 371 human kinases (Homo sapiens, UniProt Q13188).
T14 construct: purchased Reaction Biology Corp
T14 sequence (Q13188 whole entry): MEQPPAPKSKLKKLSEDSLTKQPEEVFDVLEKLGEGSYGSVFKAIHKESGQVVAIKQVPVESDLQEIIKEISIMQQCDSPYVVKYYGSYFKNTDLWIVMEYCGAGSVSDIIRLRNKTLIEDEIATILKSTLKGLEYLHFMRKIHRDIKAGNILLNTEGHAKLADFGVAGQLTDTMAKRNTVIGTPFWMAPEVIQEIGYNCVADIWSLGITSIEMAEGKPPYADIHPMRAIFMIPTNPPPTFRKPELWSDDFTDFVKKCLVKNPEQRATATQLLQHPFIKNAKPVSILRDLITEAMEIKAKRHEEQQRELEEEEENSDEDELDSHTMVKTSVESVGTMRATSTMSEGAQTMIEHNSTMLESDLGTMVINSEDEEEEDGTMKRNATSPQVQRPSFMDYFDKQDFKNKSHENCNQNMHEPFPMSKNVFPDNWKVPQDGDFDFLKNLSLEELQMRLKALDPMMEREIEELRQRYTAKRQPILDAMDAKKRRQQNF
The following applies: MST2/STK3; 0.1 μM; 10 μM ATP; read-out: % Enzyme Activity (relative to DMSO controls).
Source text: as §1

The target in assay [15] is T15, panel of 371 human kinases (Homo sapiens, UniProt Q13153).
T15 construct: purchased Reaction Biology Corp
The following applies: PAK1; 0.1 μM; 10 μM ATP; read-out: % Enzyme Activity (relative to DMSO controls).
Source text: as §1

Assay [16] addresses T16, panel of 371 human kinases (Homo sapiens, UniProt P41279).
T16 construct: purchased Reaction Biology Corp
The following applies: COT1/MAP3K8; 0.1 μM; 10 μM ATP; read-out: % Enzyme Activity (relative to DMSO controls).
Source text: as §1

The target of assay [17] is T17, panel of 371 human kinases (Homo sapiens, UniProt Q9BXA7).
T17 construct: purchased Reaction Biology Corp
The following applies: STK22D/TSSK1; 0.1 μM; 10 μM ATP; read-out: % Enzyme Activity (relative to DMSO controls).
Source text: as §1

The target in assay [18] is T18, panel of 371 human kinases (Homo sapiens, UniProt O14733).
T18 construct: purchased Reaction Biology Corp
T18 sequence (O14733 whole entry): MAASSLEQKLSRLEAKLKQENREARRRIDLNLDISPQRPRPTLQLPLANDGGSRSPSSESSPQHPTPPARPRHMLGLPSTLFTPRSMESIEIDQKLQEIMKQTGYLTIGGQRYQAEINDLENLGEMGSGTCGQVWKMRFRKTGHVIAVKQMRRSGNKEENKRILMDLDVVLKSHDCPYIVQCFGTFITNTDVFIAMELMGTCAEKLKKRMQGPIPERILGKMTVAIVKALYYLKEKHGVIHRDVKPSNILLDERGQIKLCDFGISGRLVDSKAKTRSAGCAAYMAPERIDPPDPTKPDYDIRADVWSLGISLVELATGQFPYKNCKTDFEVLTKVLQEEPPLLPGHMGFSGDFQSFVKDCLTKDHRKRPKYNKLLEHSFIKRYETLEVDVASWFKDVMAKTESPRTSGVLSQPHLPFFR
The following applies: MKK7; 0.1 μM; 10 μM ATP; read-out: % Enzyme Activity (relative to DMSO controls).
Source text: as §1

T10 sequence (O00506 whole entry): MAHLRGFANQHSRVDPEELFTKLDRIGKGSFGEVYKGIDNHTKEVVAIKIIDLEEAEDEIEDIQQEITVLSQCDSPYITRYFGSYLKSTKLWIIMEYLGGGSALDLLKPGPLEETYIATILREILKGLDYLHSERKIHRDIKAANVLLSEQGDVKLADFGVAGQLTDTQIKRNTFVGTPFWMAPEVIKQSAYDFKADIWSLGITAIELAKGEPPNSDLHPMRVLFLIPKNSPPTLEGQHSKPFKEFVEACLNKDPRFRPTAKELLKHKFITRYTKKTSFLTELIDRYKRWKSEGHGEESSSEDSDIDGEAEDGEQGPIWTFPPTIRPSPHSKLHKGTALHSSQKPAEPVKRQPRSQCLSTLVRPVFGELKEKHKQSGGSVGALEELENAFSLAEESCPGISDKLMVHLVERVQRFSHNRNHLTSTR
T12 sequence (Q9UEE5 whole entry): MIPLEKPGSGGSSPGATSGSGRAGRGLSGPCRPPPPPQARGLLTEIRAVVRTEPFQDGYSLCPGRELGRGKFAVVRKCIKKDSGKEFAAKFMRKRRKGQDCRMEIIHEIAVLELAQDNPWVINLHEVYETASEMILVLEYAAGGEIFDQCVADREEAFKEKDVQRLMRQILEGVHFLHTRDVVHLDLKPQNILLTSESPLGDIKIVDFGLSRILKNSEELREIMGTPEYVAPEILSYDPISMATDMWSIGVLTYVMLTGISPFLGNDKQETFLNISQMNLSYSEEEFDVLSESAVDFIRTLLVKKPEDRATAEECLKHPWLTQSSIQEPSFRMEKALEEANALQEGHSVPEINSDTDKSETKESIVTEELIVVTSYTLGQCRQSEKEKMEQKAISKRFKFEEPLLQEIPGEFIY

In the case of `OCCN1CCN(Cc2ccc(-c3cnc4[nH]cc(-c5cccc(Cl)c5)c4c3)cc2)CC1` [Compound 12k, 2-(4-(4-(3-(3-Chlorophenyl)-1H-pyrrolo[2,3-b]pyridin-5-yl)benzyl)piperazin-1-yl)ethan-1-ol], the remaining activity at 0.1 µM in assay [1] was 88%; in assay [2], 95.2%; in [3], 89.6%; in assay [4] it was 89.2%; in assay [5], 78.9%; in [6], 84.1%. Also, the remaining activity at 0.1 µM in [7] was 110%; in assay [8], 96.7%; in [9], 96.3%; in [10] it was 72.4%; in [11], 99.4%; in assay [12] it was 88.8%. In addition, the remaining activity at 0.1 µM in assay [13] is 10.2%; in assay [14] it was 86%; in assay [15], 78.2%; in assay [16], 87.5%; in [17], 75.2%; in assay [18] it was 105%. The “fold change in GCK activity following 12k exposure relative to 1” value in assay [13] (0.025 μM) is 6.22 fold.
`CN1CCN(Cc2ccc(-c3cnc4[nH]cc(-c5ccc6[nH]ccc6c5)c4c3)cc2)CC1` [Compound 1, 3-(1H-Indol-5-yl)-5-(4-((4-methylpiperazin-1-yl)methyl)phenyl)-1H-pyrrolo[2,3-b]pyridine, reference compound]: the remaining activity at 0.1 µM is 106% in assay [1]; 86% in assay [2]; 99% in assay [3]; 74.9% in [4]; 66% in assay [5]; 81.3% in assay [6]. Moreover, the remaining activity at 0.1 µM in assay [7] was 101%; in assay [8], 109%; in assay [9], 94.2%; in [10], 102%; in assay [11] it was 102%; in assay [12] it was 88.7%. In addition, the remaining activity at 0.1 µM was determined as 63.6% in assay [13]; 102% in [14]; 85.2% in assay [15]; 101% in assay [16]; 87.2% in [17]; 99.8% in assay [18].
